These results are taken from ChEMBL document CHEMBL1149988, “Antibody catalyzed hydrolysis of a phosphotriester” (Bioorg Med Chem Lett, 1996).

A short description of test [1]: Hydrolysis kinetic catalysis constant was measured for the hydrolysis catalyzed by antibody 15C5.
A short description of test [2]: Michaelis-Menten kinetics was measured for the hydrolysis catalyzed by antibody 15C5.
Test [3] can be described thus: Catalysis kinetic constant was measured for the hydrolysis catalyzed by antibody 15C5.

In general, Km refers to the concentration of substrate that gives half-maximal velocity. With `CC(=O)NC1COP(=O)(Oc2ccc([N+](=O)[O-])cc2)OC1` (stereo not drawn), in test [1], the Kuncat came to 2.1 min⁻¹. Moreover, the Michaelis constant (Km) in test [2] turned out to be 87 µM. In addition, the k cat in test [3] was found to be 0.0442 s⁻¹.
